Results published in article PMC7284870, “Antimicrobial Peptides from Rat-Tailed Maggots of the Drone Fly Eristalis tenax Show Potent Activity against Multidrug-Resistant Gram-Negative Bacteria” (Microorganisms, 2020).
Values after ≈ are worked out from the molar mass of the structure shown.

Key:
P. aeruginosa ATCC 27853 = test: Checkerboard assay EtDip with colistin; assay type: cell-based, Pseudomonas aeruginosa; conditions: CAMB and + 150 mM NaCl; not in the presence of CaCl2
Method: The interactions between pairs of compounds were analyzed using checkerboard assays in a 384-well microtiter plate with an assay volume of 20 µL. Immediately before the test runs, the bacterial cultures were diluted in CAMB to a density of 5 × 10^5 cells/mL. The two compounds for combinatorial testing were arrayed as 10-fold concentrated serial dilutions with respect to the final concentration, vertically for one compound and horizontally for the other, in the same 384-well microplate. Subsequently, we transferred 2-µL aliquots to new 384-well microtiter plates, and growth inhibition in each well was determined, as described for the MIC values above. Fractional inhibitory concentration (FIC) and FICindex values for each combination were calculated using the following formulae, where a
FICindex ≤0.5 indicates synergy and a FICindex >4 indicates antagonism.
FIC for compound A = MIC of compound A in combination/MIC of compound A
FIC for compound B = MIC of compound B in combination/MIC of compound B

[1] = test system: Acinetobacter baumannii clinical isolates (20); test: MIC, clinical isolates; assay type: cell-based
Method: (§1) The strains that were used in this study (Table 2 and Table S1) were cultivated at 37 °C in cation-adjusted Mueller–Hinton broth (CAMB) in Erlenmeyer flasks, or on the same medium with agar in Petri dishes. Exceptionally, Mycobacterium smegmatis was cultivated at 37 °C in brain heart infusion (BHI) medium that was supplemented with 1% Tween-80 in Erlenmeyer flasks, or on the same medium lacking detergent but with agar in Petri dishes. Strains listed with Robert Koch Institute (RKI) strain numbers are clinical isolates from the RKI strain collection originating from hospitalized patients in Germany. The remaining strains originated from the Sanofi strain collection and they were originally purchased from the American Type Culture Collection or the German Collection of Microorganisms and Cell Cultures. Meropenem/colistin-resistant strains were maintained, as described above, with the appropriate antibiotic added at levels below the minimal inhibitory concentration (MIC).
(§2) The MIC values were determined in 384-well microtiter plates with an assay volume of 20 µL. Immediately before each assay, the cultures of test organisms (bacteria grown for 18 h, Candida albicans and M. smegmatis grown for 48 h) were diluted with the appropriate medium to a density of 1 × 10^6 cells/mL (C. albicans), 1 × 10^5 cells/mL (M. smegmatis) or 5 × 10^5 cells per mL (other species). […] We transferred 2-µL aliquots from this dilution series to new 384-well microtiter plates while using a CyBio-Well 384-channel automated pipettor (Analytic Jena, Jena, Germany) and added 18 µL of the diluted suspension of each test species using a Viafill reagent dispenser (Integra), thus reducing the final peptide concentration 10-fold to the range 1024–0.03125 µg/mL. […] The growth of M. smegmatis was measured using the BacTiter-Glo luminescence test system (Promega, Madison, WI, USA). The growth of the other species was determined by visual inspection of the microtiter plate and turbidimetry based on the optical density at 600 nm (OD600). The MIC was defined as the peptide concentration at which no bacterial growth was observed. We supplemented the test medium with either 150 mM NaCl or 1.25 mM CaCl2 to represent monovalent and divalent cations to simulate physiological conditions.

[2] = test system: Acinetobacter pittii clinical isolate (1); test: MIC, clinical isolates; assay type: cell-based; conditions: Table S1, RKI 588/16
Method: as §1, §2

[3] = test system: Citrobacter freundii clinical isolate (1); test: MIC, clinical isolates; assay type: cell-based; conditions: Table S1, RKI 604/16
Method: as §1, §2

[4] = test system: Enterobacter aerogenes clinical isolate (1); test: MIC, clinical isolates; assay type: cell-based; conditions: Klebsiella aerogenes; Table S1, RKI 1026/14-1
Method: as §1, §2

[5] = test system: Enterobacter cloacae clinical isolates (23); test: MIC, clinical isolates; assay type: cell-based
Method: as §1, §2

[6] = test system: Klebsiella oxytoca clinical isolates (2); test: MIC, clinical isolates; assay type: cell-based; conditions: Table S1, RKI 609/16
Method: as §1, §2

[7] = test system: Morganella morganii clinical isolates (4); test: MIC, clinical isolates; assay type: cell-based
Method: as §1, §2

[8] = test system: Salmonella enterica clinical isolates (10); test: MIC, clinical isolates; assay type: cell-based
Method: as §1, §2

[9] = test system: Stenotrophomonas maltophilia clinical isolates (2); test: MIC, clinical isolates; assay type: cell-based; conditions: Table S1, RKI 729/15
Method: as §1, §2

QFNMQGGGSPRQGFDVNANARFPIWQSQNARNSVHGTASYAQHLGGPYGNSRPNFGGGLQFT [EtDip, diptericin-like peptide of Eristalis tenax]
interaction with colistin (FICindex) (P. aeruginosa ATCC 27853): Synergistic interactions

C[C@@H](O)[C@H]1C(=O)N2C(C(=O)O)=C(S[C@@H]3CN[C@H](C(=O)N(C)C)C3)[C@H](C)[C@H]12 [MEM, meropenem]
MIC ([1]; Table S1, RKI 3/15): 32 µg/mL (≈ 83.4 µM)
MIC ([1]; Table S1, RKI 4/15): 32 µg/mL (≈ 83.4 µM)
MIC ([1]; Table S1, RKI 11/16): > 64 µg/mL
MIC ([1]; Table S1, RKI 12/16): 64 µg/mL (≈ 167 µM)
MIC ([1]; Table S1, RKI 13/16): > 64 µg/mL
MIC ([1]; Table S1, RKI 14/16): > 64 µg/mL
MIC ([1]; Table S1, RKI 16/15): > 64 µg/mL
MIC ([1]; Table S1, RKI 16/16): > 64 µg/mL
MIC ([1]; Table S1, RKI 30/16): > 64 µg/mL
MIC ([1]; Table S1, RKI 32/16): 64 µg/mL (≈ 167 µM)
MIC ([1]; Table S1, RKI 70/16): > 64 µg/mL
MIC ([1]; Table S1, RKI 230/15): > 64 µg/mL
MIC ([1]; Table S1, RKI 231/15): 64 µg/mL (≈ 167 µM)
MIC ([1]; Table S1, RKI 271/16): > 64 µg/mL
MIC ([1]; Table S1, RKI 272/16): > 64 µg/mL
MIC ([1]; Table S1, RKI 377/15): 8 µg/mL (≈ 20.9 µM)
MIC ([1]; Table S1, RKI 523/16): 32 µg/mL (≈ 83.4 µM)
MIC ([1]; Table S1, RKI 584/16): ≤ 0.5 µg/mL
MIC ([1]; Table S1, RKI 596/16): > 64 µg/mL
MIC [2]: ≤ 0.5 µg/mL
MIC [3]: > 64 µg/mL
MIC [4]: 16 µg/mL (≈ 41.7 µM)
MIC ([5]; Table S1, RKI 5/14): 4 µg/mL (≈ 10.4 µM)
MIC ([5]; Table S1, RKI 33/16): 8 µg/mL (≈ 20.9 µM)
MIC ([5]; Table S1, RKI 34/16): 32 µg/mL (≈ 83.4 µM)
MIC ([5]; Table S1, RKI 37/14): ≤ 0.5 µg/mL
MIC ([5]; Table S1, RKI 76/15): ≤ 0.5 µg/mL
MIC ([5]; Table S1, RKI 113/16): 2 µg/mL (≈ 5.22 µM)
MIC ([5]; Table S1, RKI 136/15): > 64 µg/mL
MIC ([5]; Table S1, RKI 141/15): 2 µg/mL (≈ 5.22 µM)
MIC ([5]; Table S1, RKI 210/15): ≤ 0.5 µg/mL
MIC ([5]; Table S1, RKI 215/15): ≤ 0.5 µg/mL
MIC ([5]; Table S1, RKI 243/15): ≤ 0.5 µg/mL
MIC ([5]; Table S1, RKI 287/13): 64 µg/mL (≈ 167 µM)
MIC ([5]; Table S1, RKI 308/13): 8 µg/mL (≈ 20.9 µM)
MIC ([5]; Table S1, RKI 348/15): 1 µg/mL (≈ 2.61 µM)
MIC ([5]; Table S1, RKI 361/13): ≤ 0.5 µg/mL
MIC ([5]; Table S1, RKI 460/16): 64 µg/mL (≈ 167 µM)
MIC ([5]; Table S1, RKI 466/13): 16 µg/mL (≈ 41.7 µM)
MIC ([5]; Table S1, RKI 506/15): 16 µg/mL (≈ 41.7 µM)
MIC ([5]; Table S1, RKI 546/13): ≤ 0.5 µg/mL
MIC ([5]; Table S1, RKI 571/13): ≤ 0.5 µg/mL
MIC ([5]; Table S1, RKI 733/14): 64 µg/mL (≈ 167 µM)
MIC ([5]; Table S1, RKI 766/15): ≤ 0.5 µg/mL
MIC [6]: 16 µg/mL (≈ 41.7 µM)
MIC ([7]; Table S1, RKI 81/15): ≤ 0.5 µg/mL
MIC ([7]; Table S1, RKI 93/15): ≤ 0.5 µg/mL
MIC ([7]; Table S1, RKI 599/16): > 64 µg/mL
MIC ([7]; Table S1, RKI 659/13): ≤ 0.5 µg/mL
MIC ([8]; Table S1, RKI 205/14): ≤ 0.5 µg/mL
MIC ([8]; Table S1, RKI 206/14): ≤ 0.5 µg/mL
MIC ([8]; Table S1, RKI 270/14): ≤ 0.5 µg/mL
MIC ([8]; Table S1, RKI 277/14): ≤ 0.5 µg/mL
MIC ([8]; Table S1, RKI 419/14): ≤ 0.5 µg/mL
MIC ([8]; Table S1, RKI 436/14): ≤ 0.5 µg/mL
MIC ([8]; Table S1, RKI 437/14): ≤ 0.5 µg/mL
MIC ([8]; Table S1, RKI 532/14-1): ≤ 0.5 µg/mL
MIC ([8]; Table S1, RKI 533/14): ≤ 0.5 µg/mL
MIC ([8]; Table S1, RKI 583/14): ≤ 0.5 µg/mL
MIC [9]: > 64 µg/mL
